# Assay results reported in patent US20090221642A1, “MUSCARINIC RECEPTOR AGONISTS, COMPOSITIONS, METHODS OF TREATMENT THEREOF, AND PROCESSES FOR PREPARATION THEREOF-176” (AstraZeneca AB, priority 2008, published 2009).
# Target: T1, hM1 (human Muscarinic receptor subtype 1) (Homo sapiens, UniProt P11229)
# T1 construct: expressed in transfected cells; host or cells: CHO cells (Chinese hamster ovary cells, ATCC)
# T1 sequence (P11229 1-460): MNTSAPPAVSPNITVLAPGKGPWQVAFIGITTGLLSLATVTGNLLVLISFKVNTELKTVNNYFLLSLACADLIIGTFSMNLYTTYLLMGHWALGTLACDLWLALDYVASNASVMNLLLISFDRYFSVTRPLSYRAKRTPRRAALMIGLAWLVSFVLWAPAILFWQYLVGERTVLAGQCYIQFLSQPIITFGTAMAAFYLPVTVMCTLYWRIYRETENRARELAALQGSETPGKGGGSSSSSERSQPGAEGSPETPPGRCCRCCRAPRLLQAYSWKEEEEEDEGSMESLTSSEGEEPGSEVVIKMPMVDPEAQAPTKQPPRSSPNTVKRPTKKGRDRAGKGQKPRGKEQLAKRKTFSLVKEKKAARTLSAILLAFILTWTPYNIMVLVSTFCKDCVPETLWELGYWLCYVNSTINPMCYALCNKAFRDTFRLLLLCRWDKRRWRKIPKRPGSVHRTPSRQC
# Test: Human M1 calcium mobilization FLIPR assay
# Assay type: cell-based
# Conditions: hM1 expressed in CHO cells, intracellular Ca2+ release, read-out: hM1 EC50
# Description: Human M1, rat M1, human M3 and human M5 Calcium Mobilization FLIPR™ Assay
# The compound activity in the present invention (EC50 or IC50) is measured using a 384 plate-based imaging assay that monitors drug induced intracellular Ca^2+ release in whole cells. Activation of hM1 (human Muscarinic receptor subtype 1, gene bank access NM_000738), rM1 (rat Muscarinic receptor subtype 1, gene bank access NM_080773), hM3 (human Muscarinic receptor subtype 3, gene bank access NM_000740NM_000740) and hM5 (human Muscarinic receptor subtype 5, gene bank access NM_0121258), receptors expressed in CHO cells (Chinese hamster ovary cells, ATCC) is quantified in a Molecular Devices FLIPR II™ instrument as an increase in fluorescent signal. Inhibition of hM3 and hM5 by compounds is determined by the decrease in fluorescent signal in response to 2 nM acetylcholine activation.
# Prior to experiment, the cell culture medium is removed from the plates by inversion. […] Plates are incubated at 37° C. for 60 minutes prior to start the experiment. The incubation is terminated by washing the cells four times in assay buffer, leaving a residual 25 μl buffer per well. Cell plates are then transferred to the FLIPR, ready for compound additions.
# The day of experiment, acetylcholine and compounds are diluted in assay buffer in three-fold concentration range (10 points serial dilution) for addition by FLIPR instrument. For all calcium assays, a baseline reading is taken for 10 seconds followed by the addition of 12.5 μl of compounds, resulting in a total well volume of 37.5 μl. Data is collected every second for 60 pictures and then every 6 seconds for 20 pictures prior to the addition of agonist. For hM3 and hM5, before agonist addition, a second baseline reading is taken for 10 seconds followed by the addition of 12.5 μl of agonist or buffer, producing a final volume of 50 μl. After agonist stimulation, the FLIPR continues to collect data every second for 60 pictures and then every 6 seconds for 20 pictures. The fluorescence emission is read using filter 1 (emission 510-570 nm) by the FLIPR on board CCD camera.
# Calcium mobilization output data are calculated as the maximal relative fluorescence unit (RFU) minus the minimal value for both compound and agonist reading frame (except for hM1 and rM1 using only the maximal RFU). Data are analyzed using sigmoidal fits of a non-linear curve-fitting program (XLfit version 4.2.2 Excel add-in version 4.2.2 build 18 math 1Q version 2.1.2 build 18). All pEC50 and plC50 values are reported as arithmetic means ±standard error of mean of ‘n’ independent experiments.
smiles,measurement,value
"COC(=O)N1CCC(C)(N2CCC(N3C(=O)Cc4cc(F)ccc43)CC2)C1 (racemic) [Example 78, methyl 3-(4-(5-fluoro-2-oxoindolin-1-yl)piperidin-1-yl)-3-methylpyrrolidine-1-carboxylate]",EC50,76.2 nM
"CCOC(=O)N1CCC(C)(N2CCC(n3c(=O)[nH]c4cc(C)ccc43)CC2)C1 (single isomer, unassigned) [Example 13, ethyl 3-methyl-3-(4-(5-methyl-2-oxo-2,3-dihydro-1H-benzo[d]imidazol-1-yl)piperidin-1-yl)pyrrolidine-1-carboxylate]",EC50,70.1 nM
"CC#CCOC(=O)N1CCC(C)(N2CCC(n3c(=O)[nH]c4ccc(C)cc43)CC2)C1 (single isomer, unassigned) [Example 18, but-2-ynyl 3-methyl-3-(4-(6-methyl-2-oxo-2,3-dihydro-1H-benzo[d]imidazol-1-yl)piperidin-1-yl)pyrrolidine-1-carboxylate]",EC50,158 nM
"CC#CCOC(=O)N1CCC(C)(N2CCC(n3c(=O)[nH]c4cc(C)ccc43)CC2)C1 (single isomer, unassigned) [Example 19, but-2-ynyl 3-methyl-3-(4-(5-methyl-2-oxo-2,3-dihydro-1H-benzo[d]imidazol-1-yl)piperidin-1-yl)pyrrolidine-1-carboxylate]",EC50,324 nM
"Cc1ccc2c(c1)[nH]c(=O)n2C1CCN(C2(C)CCN(C(=O)OCCF)C2)CC1 (single isomer, unassigned) [Example 29, 2-fluoroethyl 3-methyl-3-(4-(5-methyl-2-oxo-2,3-dihydro-1H-benzo[d]imidazol-1-yl)piperidin-1-yl)pyrrolidine-1-carboxylate]",EC50,166 nM
"COC(=O)N1CCC(C)(N2CCC(n3c(=O)[nH]c4ccccc43)CC2)C1 (single isomer, unassigned) [Example 30, methyl 3-methyl-3-(4-(2-oxo-2,3-dihydro-1H-benzo[d]imidazol-1-yl)piperidin-1-yl)pyrrolidine-1-carboxylate]",EC50,108 nM
"CC#CCOC(=O)N1CCC(C)(N2CCC(n3c(=O)[nH]c4cc(F)ccc43)CC2)C1 (single isomer, unassigned) [Example 35, but-2-ynyl 3-(4-(5-fluoro-2-oxo-2,3-dihydro-1H-benzo[d]imidazol-1-yl)piperidin-1-yl)-3-methylpyrrolidine-1-carboxylate]",EC50,56.9 nM
"COC(=O)N1CCC(C)(N2CCC(n3c(=O)[nH]c4cc(F)ccc43)CC2)C1 (single isomer, unassigned) [Example 37, methyl 3-(4-(5-fluoro-2-oxo-2,3-dihydro-1H-benzo[d]imidazol-1-yl)piperidin-1-yl)-3-methylpyrrolidine-1-carboxylate]",EC50,76.5 nM
"CC1(N2CCC(n3c(=O)[nH]c4cc(F)ccc43)CC2)CCN(C(=O)OCCF)C1 (single isomer, unassigned) [Example 38, 2-fluoroethyl 3-(4-(5-fluoro-2-oxo-2,3-dihydro-1H-benzo[d]imidazol-1-yl)piperidin-1-yl)-3-methylpyrrolidine-1-carboxylate]",EC50,112 nM
"C#CCOC(=O)N1CCC(C)(N2CCC(n3c(=O)[nH]c4cc(C)ccc43)CC2)C1 (single isomer, unassigned) [Example 42, prop-2-ynyl 3-methyl-3-(4-(5-methyl-2-oxo-2,3-dihydro-1H-benzo[d]imidazol-1-yl)piperidin-1-yl)pyrrolidine-1-carboxylate]",EC50,235 nM
"COC(=O)N1CCC(C)(N2CCC(n3c(=O)[nH]c4cc(C)ccc43)CC2)C1 (single isomer, unassigned) [Example 46, methyl 3-methyl-3-(4-(5-methyl-2-oxo-2,3-dihydro-1H-benzo[d]imidazol-1-yl)piperidin-1-yl)pyrrolidine-1-carboxylate]",EC50,132 nM
"COC(=O)N1CCC(C)(N2CCC(n3c(=O)[nH]c4ccc(F)cc43)CC2)C1 (single isomer, unassigned) [Example 51, methyl 3-(4-(6-fluoro-2-oxo-2,3-dihydro-1H-benzo[d]imidazol-1-yl)piperidin-1-yl)-3-methylpyrrolidine-1-carboxylate]",EC50,57.1 nM
"CC1(N2CCC(n3c(=O)[nH]c4ccc(F)cc43)CC2)CCN(C(=O)OCCF)C1 (single isomer, unassigned) [Example 54, 2-fluoroethyl 3-(4-(6-fluoro-2-oxo-2,3-dihydro-1H-benzo[d]imidazol-1-yl)piperidin-1-yl)-3-methylpyrrolidine-1-carboxylate]",EC50,92.8 nM
"COC(=O)N1CCC(C)(N2CCC(n3c(=O)[nH]c4cc(F)c(F)cc43)CC2)C1 (single isomer, unassigned) [Example 59, methyl 3-(4-(5,6-difluoro-2-oxo-2,3-dihydro-1H-benzo[d]imidazol-1-yl)piperidin-1-yl)-3-methylpyrrolidine-1-carboxylate]",EC50,77.6 nM
"CC1(N2CCC(n3c(=O)[nH]c4cc(F)c(F)cc43)CC2)CCN(C(=O)OCCF)C1 (single isomer, unassigned) [Example 62, 2-fluoroethyl 3-(4-(5,6-difluoro-2-oxo-2,3-dihydro-1H-benzo[d]imidazol-1-yl)piperidin-1-yl)-3-methylpyrrolidine-1-carboxylate]",EC50,79.8 nM
"CCCOC(=O)N1CCC(C)(N2CCC(n3c(=O)[nH]c4ccc(F)cc43)CC2)C1 (single isomer, unassigned) [Example 63, propyl 3-(4-(6-fluoro-2-oxo-2,3-dihydro-1H-benzo[d]imidazol-1-yl)piperidin-1-yl)-3-methylpyrrolidine-1-carboxylate]",EC50,344 nM
"CCCOC(=O)N1CCC(C)(N2CCC(n3c(=O)[nH]c4ccc(F)cc43)CC2)C1 (single isomer, unassigned) [Example 64, propyl 3-(4-(6-fluoro-2-oxo-2,3-dihydro-1H-benzo[d]imidazol-1-yl)piperidin-1-yl)-3-methylpyrrolidine-1-carboxylate]",EC50,80.1 nM
"CC(C)OC(=O)N1CCC(C)(N2CCC(n3c(=O)[nH]c4ccc(F)cc43)CC2)C1 (single isomer, unassigned) [Example 65, isopropyl 3-(4-(6-fluoro-2-oxo-2,3-dihydro-1H-benzo[d]imidazol-1-yl)piperidin-1-yl)-3-methylpyrrolidine-1-carboxylate]",EC50,104 nM
"CC(C)OC(=O)N1CCC(C)(N2CCC(n3c(=O)[nH]c4ccc(F)cc43)CC2)C1 (single isomer, unassigned) [Example 66, isopropyl 3-(4-(6-fluoro-2-oxo-2,3-dihydro-1H-benzo[d]imidazol-1-yl)piperidin-1-yl)-3-methylpyrrolidine-1-carboxylate]",EC50,50.2 nM
"COC(=O)N1CCC(C)(N2CCC(N3C(=O)Cc4ccc(F)cc43)CC2)C1 (single isomer, unassigned) [Example 77, methyl 3-(4-(6-fluoro-2-oxoindolin-1-yl)piperidin-1-yl)-3-methylpyrrolidine-1-carboxylate]",EC50,94.5 nM
"CC(C)OC(=O)N1CCC(C)(N2CCC(n3c(=O)[nH]c4ccccc43)CC2)C1 (centres unmarked) [Example 3, isopropyl 3-methyl-3-(4-(2-oxo-2,3-dihydro-1H-benzo[d]imidazol-1-yl)piperidin-1-yl)pyrrolidine-1-carboxylate]",EC50,108 nM
"CC(C)OC(=O)N1CCC(C)(N2CCC(n3c(=O)[nH]c4cc(F)ccc43)CC2)C1 (centres unmarked) [Example 9, isopropyl 3-(4-(5-fluoro-2-oxo-2,3-dihydro-1H-benzo[d]imidazol-1-yl)piperidin-1-yl)-3-methylpyrrolidine-1-carboxylate]",EC50,124 nM
"COC(=O)N1CCC(C)(N2CCC(N3C(=O)Cc4ccccc43)CC2)C1 (centres unmarked) [Example 71, methyl 3-methyl-3-(4-(2-oxoindolin-1-yl)piperidin-1-yl)pyrrolidine-1-carboxylate]",EC50,123 nM
